Laboratory results from paper PMC9374667 (Communications Biology, 2022).
Where “and” joins values, the source holds several entries; their conditions need not be identical. Identical values can stand only once.

Legend:
Format in all cases: cell-based, Murine
cAMP, glycerol release = assay: cAMP levels and glycerol release in TNF-α induced 3T3-L1 adipocytes (isoproterenol)
Method: The epididymal adipose tissue was dissected, the fresh adipose tissue was weighed and rapidly rinsed with PBS. The adipose tissue was cut and incubated with isoproterenol (10 μM) for 2 h, and homogenized in a cold cleavage buffer to prepare the adipose tissue homogenate. Then the homogenate was centrifuged at 12,000 × g at 4 °C for 15 min, and the supernatant was collected. […] Then the cells were lysed in a petri dish, scraped off, and centrifuged at 12,000 × g at 4 °C for 15 min before the supernatant was collected. […] And concentrations were further standardized according to protein concentration.

IKKε [1] = target: T1, IKKε (Mus musculus, UniProt Q9R0T8); assay: 3T3-L1 adipocytes transfected with IKKε plasmid (western blotting, cAMP, glycerol, ISO); design: endogenous in cells; host or cells: differentiated 3T3-L1 adipocytes; IKKε (western blotting, Figure 8h) / UCP1 (western blotting, Figure 8i) / UCP1 (western blotting, Figure 8j): scale not given here; cAMP levels (Figure 8k) / Glycerol release (Figure 8l): unit not given here
T1 sequence (Q9R0T8 1-717): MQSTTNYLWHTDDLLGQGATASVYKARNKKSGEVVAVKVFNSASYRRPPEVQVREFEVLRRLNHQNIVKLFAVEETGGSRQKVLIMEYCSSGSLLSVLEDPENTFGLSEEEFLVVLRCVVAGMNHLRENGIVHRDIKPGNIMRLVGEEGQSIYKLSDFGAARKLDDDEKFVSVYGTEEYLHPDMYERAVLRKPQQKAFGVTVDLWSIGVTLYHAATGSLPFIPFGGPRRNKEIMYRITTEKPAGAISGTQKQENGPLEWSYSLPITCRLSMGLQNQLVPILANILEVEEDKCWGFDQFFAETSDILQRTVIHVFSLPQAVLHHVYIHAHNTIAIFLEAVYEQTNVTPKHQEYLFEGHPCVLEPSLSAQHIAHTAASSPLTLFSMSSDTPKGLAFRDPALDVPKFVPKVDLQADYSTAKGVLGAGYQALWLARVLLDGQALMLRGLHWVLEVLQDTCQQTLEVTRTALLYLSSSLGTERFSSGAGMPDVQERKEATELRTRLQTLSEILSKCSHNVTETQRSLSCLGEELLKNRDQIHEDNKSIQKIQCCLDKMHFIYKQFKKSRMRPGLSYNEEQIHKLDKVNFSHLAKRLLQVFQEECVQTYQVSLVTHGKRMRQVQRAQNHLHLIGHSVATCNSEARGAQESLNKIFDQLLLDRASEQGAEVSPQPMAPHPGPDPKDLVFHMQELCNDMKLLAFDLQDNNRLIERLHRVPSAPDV
Method: (§1) Small interference RNA transfection (siRNA) was performed using 4 μM TBK1 siRNA (siTBK1) or 4 μM […]ε) or corresponding NC siRNA (siNC). The epididymal adipose tissue was dissected, the fresh adipose tissue was weighed and rapidly rinsed with PBS. The adipose tissue was cut and incubated with isoproterenol (10 μM) for 2 h, and homogenized in a cold cleavage buffer to prepare the adipose tissue homogenate. Then the homogenate was centrifuged at 12,000 × g at 4 °C for 15 min, and the supernatant was collected. […] Then the cells were lysed in a petri dish, scraped off, and centrifuged at 12,000 × g at 4 °C for 15 min before the supernatant was collected. […] And concentrations were further standardized according to protein concentration. The adipose tissue or 3T3-L1 adipocytes were homogenized by ultrasound in an ice-cold RIPA lysis buffer containing 1% PMSF and centrifuged at 12,000 × g at 4°C for 15 min to collect the supernatant. The BCA protein assay kit (Beyotime, Shanghai, China) was used to detect the total protein concentration. Proteins (20-30 μg) of the sample were separated by 10% SDS-PAGE gel and transferred onto polyvinylidene difluoride (PVDF) membranes. Then the PVDF membranes were blocked in 5% skim milk powder in TBS containing 1% Tween-20 (TBST) for 2 h at room temperature and washed with TBST for 3 times. […] After washing, the membranes were incubated with horseradish peroxidase-conjugated secondary antibodies (in 5% skim milk powder) for 1 h at room temperature. Finally, the membranes were treated with enhanced chemiluminescence agents (Tanon, Shanghai, China) and the signals were monitored using the Tanon 5200 multi chemiluminescent imaging system (Tanon, Shanghai, China).

IKKε [2] = target: T1, IKKε; assay: IKKε-knockdown 3T3-L1 adipocytes (siRNA; western blotting, cAMP, glycerol, ISO); design: endogenous in cells; host or cells: differentiated 3T3-L1 adipocytes; details: ISO +, 10μM BJ -
Method: as §1

- Glycerol release (Figure 8l) (IKKε [1]; ISO): 108.886 and 102.136 and 112.261
- UCP1 (western blotting, Figure 8j) (IKKε [1]; ISO): 0.8258 and 0.5499 and 0.929
- cAMP levels (Figure 8k) (IKKε [1]; ISO): 0.2652 and 0.258 and 0.2726
- Glycerol release (Figure 8l) (IKKε [1]; ISO+IKKε): 84.4172 and 90.3234 and 97.917
- UCP1 (western blotting, Figure 8j) (IKKε [1]; ISO+IKKε): 0.3959 and 0.3641 and 0.3989
- cAMP levels (Figure 8k) (IKKε [1]; ISO+IKKε): 0.1824 and 0.1892 and 0.1882
- UCP1 (western blotting, Figure 9J) (IKKε [2]; siIKKϵ +): 0.6893 and 0.7105 and 0.7747
- UCP1 (western blotting, Figure 9J) (IKKε [2]; siIKKϵ -): 0.5841 and 0.5565 and 0.4767
SMILES: CC(C)NCC(O)c1ccc(O)c(O)c1 (stereo not shown) [ISO]
- Glycerol release in differentiated 3T3-L1 adipocytes induced by TNF-α (cAMP, glycerol release; ISO): 113.104 µmol/L and 118.167 µmol/L and 114.792 µmol/L
- cAMP levels in differentiated 3T3-L1 adipocytes induced by TNF-α (cAMP, glycerol release; ISO): 0.361 pmol/mg protein and 0.3597 pmol/mg protein and 0.3681 pmol/mg protein
- Glycerol release in differentiated 3T3-L1 adipocytes induced by TNF-α (cAMP, glycerol release; ISO+TNF-α(50ng/ml)): 103.823 µmol/L and 102.136 µmol/L and 105.511 µmol/L
- cAMP levels in differentiated 3T3-L1 adipocytes induced by TNF-α (cAMP, glycerol release; ISO+TNF-α(50ng/ml)): 0.2016 pmol/mg protein and 0.1968 pmol/mg protein and 0.1945 pmol/mg protein
- Glycerol (Figure 9l) (IKKε [2]; siIKKϵ +): 169.673 µmol/L and 171.907 µmol/L and 177.534 µmol/L
- cAMP (Figure 9k) (IKKε [2]; siIKKϵ +): 0.3589 pmol/mg protein and 0.3755 pmol/mg protein and 0.3876 pmol/mg protein and 0.3693 pmol/mg protein and 0.3629 pmol/mg protein and 0.3678 pmol/mg protein
- Glycerol (Figure 9l) (IKKε [2]; siIKKϵ -): 104.409 µmol/L and 108.54 µmol/L and 120.987 µmol/L
- cAMP (Figure 9k) (IKKε [2]; siIKKϵ -): 0.2714 pmol/mg protein and 0.2836 pmol/mg protein and 0.2536 pmol/mg protein and 0.2485 pmol/mg protein and 0.2952 pmol/mg protein
